From ChEMBL document CHEMBL5523706, “Structure-based drug design of DNA minor groove binders and evaluation of their antibacterial and anticancer properties” (Eur J Med Chem, 2024)
Converted amounts (≈) assume the structure as drawn. The source made the active and inactive calls. The calls are words filed in the database; no cut-off is given here.

Legend:
[1] = Dissociation constant, pKa of the compound; format: physicochemical
[2] = Cytotoxicity against human HDF cells assessed as reduction in cell viability at 50 uM incubated for 24 hrs by MTT assay relative to control; format: toxicity, cell-based; conditions: HDF cells (NHDF cell line), read-out: INH
[3] = system: Panel NCI-60 (60 carcinoma cell lines); experiment: Antitumor activity against human NCI-60 cells assessed as inhibition of cell growth at 10 uM incubated for 48 hrs by SRB assay; format: functional
Bacillus cereus [4] = experiment: Bactericidal activity against Bacillus cereus MTCC 131621 assessed as reduction in bacterial viability at 100 uM incubated for 2 hrs in autoclaved distilled water followed by culturing on agar for overnight; format: functional; conditions: MTCC 131621, 2 h
Serratia marcescens [5] = experiment: Bactericidal activity against Serratia marcescens ATCC 13880 assessed as reduction in bacterial viability at 100 uM incubated for 2 hrs in autoclaved distilled water followed by culturing on agar for overnight; format: functional
Streptococcus pyogenes [6] = experiment: Bactericidal activity against Streptococcus pyogenes ATCC 49399 assessed as reduction in bacterial viability at 100 uM incubated for 2 hrs in autoclaved distilled water followed by culturing on agar for overnight; format: functional; conditions: for inhibition at 100 µM: ATCC 49399, 2 h
Salmonella enterica [7] = experiment: Antibacterial activity against Salmonella enterica assessed as reduction in bacteria-mediated cytopathogenicity pretreated with bacteria followed by incubation with human cells; format: functional
Streptococcus pneumoniae [8] = experiment: Bactericidal activity against Streptococcus pneumoniae ATCC 13883 assessed as reduction in bacterial viability incubated for 2 hrs in autoclaved distilled water followed by culturing on agar for overnight; format: functional; conditions: ATCC 13883, 2 h
Bacillus cereus [9] = experiment: Antibacterial activity against Bacillus cereus assessed as reduction in bacteria-mediated cytopathogenicity pretreated with bacteria followed by incubation with human cells; format: functional
Serratia marcescens [10] = experiment: Bactericidal activity against Serratia marcescens ATCC 13880 assessed as reduction in bacterial viability incubated for 2 hrs in autoclaved distilled water followed by culturing on agar for overnight; format: functional; conditions: ATCC 13880, 2 h
Salmonella enterica [11] = experiment: Bactericidal activity against Salmonella enterica ATCC 14028 assessed as reduction in bacterial viability incubated for 2 hrs in autoclaved distilled water followed by culturing on agar for overnight; format: functional; conditions: ATCC 14028, 2 h
Streptococcus pyogenes [12] = experiment: Bactericidal activity against Streptococcus pyogenes ATCC 49399 assessed as reduction in bacterial viability incubated for 2 hrs in autoclaved distilled water followed by culturing on agar for overnight; format: functional; conditions: ATCC 49399, 2 h
Escherichia coli [13] = experiment: Bactericidal activity against Escherichia coli K1 MTCC 710859 assessed as reduction in bacterial viability incubated for 2 hrs in autoclaved distilled water followed by culturing on agar for overnight; format: functional; conditions: K1 MTCC 710859, 2 h
Salmonella enterica [14] = experiment: Bactericidal activity against Salmonella enterica ATCC 14028 assessed as reduction in bacterial viability at 100 uM incubated for 2 hrs in autoclaved distilled water followed by culturing on agar for overnight; format: functional; conditions: ATCC 14028, 2 h
DNA [15] = experiment: Binding affinity to minor groove of d(5'-GCGACTAGTCGC3')2 duplex DNA (unknown origin) assessed as change in melting temperature at 2 equiv. in presence of 8 uM DNA measured at 30 to 100 degC by UV spectrophotometric analysis; format: nucleic-acid assay
Streptococcus pneumoniae [16] = experiment: Bactericidal activity against Streptococcus pneumoniae ATCC 13883 assessed as reduction in bacterial viability at 100 uM incubated for 2 hrs in autoclaved distilled water followed by culturing on agar for overnight; format: functional; conditions: for inhibition at 100 µM: ATCC 13883, 2 h
Escherichia coli [17] = experiment: Bactericidal activity against Escherichia coli K1 MTCC 710859 assessed as reduction in bacterial viability at 100 uM incubated for 2 hrs in autoclaved distilled water followed by culturing on agar for overnight; format: functional; conditions: for inhibition at 100 µM: K1 MTCC 710859, 2 h
NHDF = experiment: Cytotoxicity against human HDF cells assessed as reduction in cell viability at 50 uM incubated for 24 hrs by MTT assay; format: toxicity, cell-based
DNA [18] = experiment: Binding affinity to d(5'-GCGACTAGTCGC-3')2 duplex DNA (unknown origin) at DNA to ligand stoichiometric ratio of 0.5:1 measured at 298K by isothermal titration calorimetry; format: nucleic-acid assay
DNA [19] = experiment: Binding affinity to d(5'-GCGACTAGTCGC-3')2 duplex DNA (unknown origin) assessed as change in free energy at 10 uM measured at 298K by isothermal titration calorimetry; format: nucleic-acid assay
Bacillus cereus [20] = experiment: Bactericidal activity against Bacillus cereus MTCC 131621 assessed as reduction in bacterial viability incubated for 2 hrs in autoclaved distilled water followed by culturing on agar for overnight; format: functional; conditions: MTCC 131621, 2 h
DNA [21] = experiment: Binding affinity to d(5'-GCGACTAGTCGC-3')2 duplex DNA (unknown origin) at 10 uM measured at 298K by isothermal titration calorimetry; format: nucleic-acid assay
DNA [22] = experiment: Binding affinity to d(5'-GCGACTAGTCGC-3')2 duplex DNA (unknown origin) assessed as change in enthalpy at 10 uM measured at 298K by isothermal titration calorimetry; format: nucleic-acid assay
DNA [23] = experiment: Binding affinity to d(5'-GCGACTAGTCGC-3')2 duplex DNA (unknown origin) assessed as change in entropy at 10 uM measured at 298K by isothermal titration calorimetry; format: nucleic-acid assay

| pKa [1] | ΔTm (DNA [15]) [°C] | SMILES | cytotoxicity at 24 h, 50 µM [2] [%] | inhibition at 10 µM [3] [%] | inhibition at 100 µM (Bacillus cereus [4]) [%] | inhibition (INH) (Salmonella enterica [7]) [%] | inhibition (INH) (Bacillus cereus [9]) [%] | Activity (NHDF) | Activity (Serratia marcescens [5]) | other results |
| --- | --- | --- | --- | --- | --- | --- | --- | --- | --- | --- |
| 9.3 |  | Cc1ccc(CSCCC(=O)Nc2cc(C(=O)Nc3cc(C(=O)NCCCN(C)C)n(C)c3)n(C)c2)cc1 | 20 | 2.57 |  |  |  |  |  |  |
| 9.3 |  | CN(C)CCCNC(=O)c1cc(NC(=O)c2cc(NC(=O)c3ccc(C#Cc4ccccc4)cc3)cn2C)cn1C |  | 126 | 59 |  |  |  |  |  |
| 9.3 |  | CN(C)CCCNC(=O)c1cc(NC(=O)c2cc(NC(=O)c3cc(NC(=O)c4cscn4)cn3C)cn2C)cn1C | 20 |  |  |  |  |  |  |  |
| 7.01 | 22 | Cn1cc(NC(=O)c2cc(NC(=O)c3ccc(C#Cc4ccccc4)cc3)cn2C)cc1C(=O)NCCCN1CCOCC1 | 20 | 97.7 | 98 | 30 | 74 |  |  | inhibition at 100 µM (Serratia marcescens [5]; ATCC 13880, 2 h): 80%; inhibition at 100 µM (Streptococcus pyogenes [6]): 83%; MIC90 (Streptococcus pneumoniae [8]): 53 µM (≈ 31.4 µg/mL); MIC90 (Serratia marcescens [10]): 88 µM (≈ 52.2 µg/mL); MIC50 (Salmonella enterica [11]): 58 µM (≈ 34.4 µg/mL); MIC90 (Salmonella enterica [11]): 117 µM (≈ 69.1 µg/mL); MIC90 (Streptococcus pyogenes [12]): 51 µM (≈ 30.2 µg/mL); MIC90 (Escherichia coli [13]): 106 µM (≈ 62.8 µg/mL); inhibition at 100 µM (Salmonella enterica [14]): 90%; inhibition at 100 µM (Streptococcus pneumoniae [16]): 97%; inhibition at 100 µM (Escherichia coli [17]): 40% |
| 7.01 |  | Cc1ccc(CSCCC(=O)Nc2cc(C(=O)Nc3cc(C(=O)NCCCN4CCOCC4)n(C)c3)n(C)c2)cc1 |  | 2.57 |  |  |  | Non-Toxic |  |  |
| 9.3 |  | CN(C)CCCNC(=O)c1cc(NC(=O)c2cc(NC(=O)c3ccc(/C=C/c4ccccc4)cc3)cn2C)cn1C |  | 64.1 |  |  |  | Toxic |  |  |
| 7.01 |  | Cn1cc(NC(=O)c2cc(NC(=O)CCSc3ccc4ccccc4c3)cn2C)cc1C(=O)NCCCN1CCOCC1 | 20 | 7.46 |  |  |  |  | inactive |  |
| 9.3 | 18 | CC(C)c1sc(NC(=O)c2cc(NC(=O)c3cc(NC(=O)c4nccn4C)cn3C)cn2C)nc1C(=O)NCCCN(C)C | 20 | 24.1 | 63 | 77 | 90 |  | inactive | Activity (DNA [18]): Active; deltaG (DNA [19]): -8.41 kcal/mol; Activity (Streptococcus pyogenes [6]): inactive; MIC90 (Streptococcus pneumoniae [8]): 67 µM (≈ 41.7 µg/mL); MIC50 (Salmonella enterica [11]): 64 µM (≈ 39.9 µg/mL); MIC90 (Salmonella enterica [11]): 101 µM (≈ 62.8 µg/mL); MIC50 (Bacillus cereus [20]): 28 µM (≈ 17.4 µg/mL); MIC90 (Bacillus cereus [20]): 33.7 µM (≈ 21 µg/mL); K (DNA [21]): 1.42 10^6/M; deltaH (DNA [22]): -20.6 kcal/mol; inhibition at 100 µM (Salmonella enterica [14]): 60%; TdeltaS (DNA [23]): -12.2 kcal/mol; inhibition at 100 µM (Streptococcus pneumoniae [16]): 60%; Activity (Escherichia coli [17]): inactive |
| 9.3 |  | CN(C)CCCNC(=O)c1cc(NC(=O)c2cc(NC(=O)c3cc(NC(=O)c4nccn4C)cn3C)cn2C)cn1C |  | -3.79 |  |  |  | Toxic |  |  |
| 9.3 | 20 | CC(C)c1sc(NC(=O)c2cc(NC(=O)c3cc(NC(=O)c4cscn4)cn3C)cn2C)nc1C(=O)NCCCN(C)C | 20 | 92.4 | 42 | 41 | 40 |  | inactive | Activity (DNA [18]): Active; deltaG (DNA [19]): -8.46 kcal/mol; Activity (Streptococcus pyogenes [6]): inactive; MIC50 (Salmonella enterica [11]): 52 µM (≈ 32.5 µg/mL); MIC90 (Salmonella enterica [11]): 134 µM (≈ 83.9 µg/mL); K (DNA [21]): 2 10^6/M; deltaH (DNA [22]): -19 kcal/mol; TdeltaS (DNA [23]): -10.5 kcal/mol; Activity (Streptococcus pneumoniae [16]): inactive; Activity (Escherichia coli [17]): inactive |
| 7.01 | 21 | Cn1cc(NC(=O)c2cc(NC(=O)c3ccc(/C=C/c4ccccc4)cc3)cn2C)cc1C(=O)NCCCN1CCOCC1 |  | 94.1 | 87 | 44 | 70 | Non-Toxic | inactive | inhibition at 100 µM (Streptococcus pyogenes [6]): 67%; MIC90 (Streptococcus pneumoniae [8]): 47 µM (≈ 28 µg/mL); MIC50 (Bacillus cereus [20]): 37 µM (≈ 22 µg/mL); MIC90 (Bacillus cereus [20]): 34.3 µM (≈ 20.4 µg/mL); MIC90 (Streptococcus pyogenes [12]): 55 µM (≈ 32.7 µg/mL); MIC90 (Escherichia coli [13]): 76 µM (≈ 45.2 µg/mL); inhibition at 100 µM (Salmonella enterica [14]): 95%; inhibition at 100 µM (Streptococcus pneumoniae [16]): 100%; inhibition at 100 µM (Escherichia coli [17]): 50% |
